Experimental data taken from patent EP0908457B1, “3-(1,2-benzisothiazol- and isoxazol-5-Y1)-2,4(1H,3H)-pyrimidinedione or thione and 3-(1,2-benzisothiazol- and isoxazol-5-y1)-4(3H)-pyrimidinone or thione herbicidal agents” (BASF AKTIENGESELLSCHAFT, priority 1997, dated 1999).

How the values were obtained:
[1] = tested on: Echinochloa oryzoides (Ard.) Fritsch.; test: Preemergence weed control under flooded paddy conditions, ECHORC (Watergrass (Calif.)); type: in vivo; details: preemergence, flooded paddy, rated three to four weeks after treatment; as to herbicidal effect rating, ECHORC: meaning of each grade not given here
[2] = tested on: Cyperus iria; test: Preemergence weed control under flooded paddy conditions, CYPIR (Rice Flatsedge); type: in vivo; details: preemergence, flooded paddy, rated three to four weeks after treatment; as to herbicidal effect rating, CYPIR: meaning of each grade not given here
[3] = tested on: Cyperus serotinus, Rottb.; test: Preemergence weed control under flooded paddy conditions, CYPSE (Flatsedge); type: in vivo; details: preemergence, rated three to four weeks after treatment; as to herbicidal effect rating, CYPSE: meaning of each grade not given here
[4] = tested on: Oryza sativa, (L.) Tebonnet; test: Rice tolerance to post-transplant applications under flooded paddy conditions (Example 187), ORYSAT (Rice, Tebonnet); details: rated three to four weeks after treatment
[5] = tested on: Monochoria vaginalis, Presl.; test: Preemergence weed control under flooded paddy conditions, MOOVA (Monochoria); type: in vivo; details: preemergence, flooded paddy, rated three to four weeks after treatment; as to herbicidal effect rating, MOOVA: meaning of each grade not given here
[6] = tested on: Sagittaria pygmaea, L.; test: Preemergence weed control under flooded paddy conditions, SAGPY (Arrowhead (Pygmaea)); type: in vivo; details: preemergence, flooded paddy, rated three to four weeks after treatment; as to herbicidal effect rating, SAGPY: meaning of each grade not given here

## Cn1c(C(F)(F)F)cc(=O)n(-c2ccc3snc(COC4C=CCCC4)c3c2)c1=O (stereo not drawn) [Example 209, 3-{3-[(2-Cyclohexen-1-yloxy)methyl]-1,2-benzisothiazol-5-yl}-1-methyl-6-(trifluoromethyl)-2,4(1H,3H)-pyrimidinedione]
[1]; Rate 0.0313 kg/ha
  ECHORC herbicidal effect rating: 1.0
[1]; Rate 0.0625 kg/ha
  ECHORC herbicidal effect rating: 2.0
[1]; Rate 0.1250 kg/ha
  ECHORC herbicidal effect rating: 2.0
[2]; Rate 0.0313 kg/ha
  CYPIR herbicidal effect rating: 2.0
[2]; Rate 0.0625 kg/ha
  CYPIR herbicidal effect rating: 4.0
[2]; Rate 0.1250 kg/ha
  CYPIR herbicidal effect rating: 8.0
[3]; Rate 0.0313 kg/ha
  CYPSE herbicidal effect rating: 0.0
[3]; Rate 0.0625 kg/ha
  CYPSE herbicidal effect rating: 0.0
[3]; Rate 0.1250 kg/ha
  CYPSE herbicidal effect rating: 0.0
[4]; Rate 0.0313 kg/ha
  ORYSAT herbicidal effect rating: 3.0
[4]; Rate 0.0625 kg/ha
  ORYSAT herbicidal effect rating: 3.0
[4]; Rate 0.1250 kg/ha
  ORYSAT herbicidal effect rating: 4.0
[5]; Rate 0.0313 kg/ha
  MOOVA herbicidal effect rating: 0.0
[5]; Rate 0.0625 kg/ha
  MOOVA herbicidal effect rating: 0.0
[5]; Rate 0.1250 kg/ha
  MOOVA herbicidal effect rating: 0.0
[6]; Rate 0.0313 kg/ha
  SAGPY herbicidal effect rating: 0.0
[6]; Rate 0.0625 kg/ha
  SAGPY herbicidal effect rating: 0.0
[6]; Rate 0.1250 kg/ha
  SAGPY herbicidal effect rating: 0.0

## Cn1c(C(F)(F)F)cc(=O)n(-c2ccc3snc(C(C#N)=Cc4ccoc4)c3c2)c1=O [Example 593, 1,2-Benzisothiazole-3-acetonitrile, 5-[3,6-dihydro-3-methyl-2,6-dioxo-4-(trifluoromethyl)-1(2H)-pyrimidinyl]-alpha-(3-furylmethylene)-]
[1]; Rate 0.0320 kg/ha
  herbicidal effect rating, ECHORC: 0.0
[1]; Rate 0.0620 kg/ha
  herbicidal effect rating, ECHORC: 0.0
[1]; Rate 0.1250 kg/ha
  herbicidal effect rating, ECHORC: 0.0
[1]; Rate 0.2500 kg/ha
  herbicidal effect rating, ECHORC: 0.0
[2]; Rate 0.0320 kg/ha
  herbicidal effect rating, CYPIR: 3.0
[2]; Rate 0.0620 kg/ha
  herbicidal effect rating, CYPIR: 3.0
[2]; Rate 0.1250 kg/ha
  herbicidal effect rating, CYPIR: 4.0
[2]; Rate 0.2500 kg/ha
  herbicidal effect rating, CYPIR: 5.0
[3]; Rate 0.1250 kg/ha
  herbicidal effect rating, CYPSE: 0.0
[3]; Rate 0.2500 kg/ha
  herbicidal effect rating, CYPSE: 0.0
[4]; Rate 0.0320 kg/ha
  herbicidal effect rating ORYSAT: 0.0
[4]; Rate 0.0620 kg/ha
  herbicidal effect rating ORYSAT: 0.0
[4]; Rate 0.1250 kg/ha
  herbicidal effect rating ORYSAT: 0.0
[4]; Rate 0.2500 kg/ha
  herbicidal effect rating ORYSAT: 0.0
[5]; Rate 0.0620 kg/ha
  herbicidal effect rating, MOOVA: 7.0
[5]; Rate 0.1250 kg/ha
  herbicidal effect rating, MOOVA: 7.0
[5]; Rate 0.2500 kg/ha
  herbicidal effect rating, MOOVA: 7.0
[6]; Rate 0.0320 kg/ha
  herbicidal effect rating, SAGPY: 0.0
[6]; Rate 0.0620 kg/ha
  herbicidal effect rating, SAGPY: 0.0
[6]; Rate 0.1250 kg/ha
  herbicidal effect rating, SAGPY: 0.0
[6]; Rate 0.2500 kg/ha
  herbicidal effect rating, SAGPY: 0.0

## C=CCCOCc1nsc2ccc(-n3c(=O)cc(C(F)(F)F)n(C)c3=O)cc12 [Example 223, 3-{3-[(3-Butenyloxy)methyl]-1,2-benzisothiazol-5-yl}-1-methyl-6-(trifluoromethyl)-2,4(1H,3H)-pyrimidinedione]
[1]; Rate 0.0313 kg/ha
  ECHORC herbicidal effect rating: 6.0
[1]; Rate 0.0625 kg/ha
  ECHORC herbicidal effect rating: 6.0
[1]; Rate 0.1250 kg/ha
  ECHORC herbicidal effect rating: 8.0
[1]; Rate 0.2500 kg/ha
  ECHORC herbicidal effect rating: 9.0
[2]; Rate 0.0313 kg/ha
  CYPIR herbicidal effect rating: 4.0
[2]; Rate 0.0625 kg/ha
  CYPIR herbicidal effect rating: 7.0
[2]; Rate 0.1250 kg/ha
  CYPIR herbicidal effect rating: 7.0
[2]; Rate 0.2500 kg/ha
  CYPIR herbicidal effect rating: 9.0
[3]; Rate 0.0313 kg/ha
  CYPSE herbicidal effect rating: 0.0
[3]; Rate 0.0625 kg/ha
  CYPSE herbicidal effect rating: 4.0
[3]; Rate 0.1250 kg/ha
  CYPSE herbicidal effect rating: 6.0
[3]; Rate 0.2500 kg/ha
  CYPSE herbicidal effect rating: 8.0
[4]; Rate 0.0313 kg/ha
  ORYSAT herbicidal effect rating: 7.0
[4]; Rate 0.0625 kg/ha
  ORYSAT herbicidal effect rating: 8.0
[4]; Rate 0.1250 kg/ha
  ORYSAT herbicidal effect rating: 8.0
[4]; Rate 0.2500 kg/ha
  ORYSAT herbicidal effect rating: 9.0
[5]; Rate 0.0313 kg/ha
  MOOVA herbicidal effect rating: 9.0
[5]; Rate 0.0625 kg/ha
  MOOVA herbicidal effect rating: 9.0
[5]; Rate 0.1250 kg/ha
  MOOVA herbicidal effect rating: 9.0
[5]; Rate 0.2500 kg/ha
  MOOVA herbicidal effect rating: 9.0
[6]; Rate 0.0313 kg/ha
  SAGPY herbicidal effect rating: 0.0
[6]; Rate 0.0625 kg/ha
  SAGPY herbicidal effect rating: 2.0
[6]; Rate 0.1250 kg/ha
  SAGPY herbicidal effect rating: 6.0
[6]; Rate 0.2500 kg/ha
  SAGPY herbicidal effect rating: 9.0
